The subject of one experiment is MV4-11 cells. Description: In vivo efficacy in athymic nude mouse acute myeloid leukemia xenograft model using MV4-11 cells. Particulars: MV4-11 AML xenograft, oral, 75 mg/kg b.i.d and 120 mg/kg b.i.d. Here is the method: MV4-11 cells (ATCC) are grown under standard cell culture conditions and (NCr) nu/nu fisol strain of female mice age 6-7 weeks are injected with 5×10^6 cells/animal in 100 μL PBS+100 μL Matrigel in the lower left abdominal flank. By approximately day 18 after MV4-11 cells injection, mice are randomized based on tumor volume (L×W×H)/2) of average ˜120 mm^3. Mice are dosed orally with compound at 75 mg/kg b.i.d and 120 mg/kg b.i.d in EA006 formulation at 10 mL/kg body weight dose volume. Tumor measurements are taken with electronic micro calipers and body weights measured on alternate days beginning from dosing period. The average tumor volumes, percent Tumor Growth Inhibition (TGI) and % change in body weights are compared relative to Vehicle control animals. The means, statistical analysis and the comparison between groups are calculated using Student's t-test in Excel.

The nature of experiment [1]: In vivo efficacy in experimental autoimmune encephalomyelitis (EAE) model of MS. Further details: species or system mouse. The following applies: EAE mice (MOG35-55/CFA, female C57Bl/6), 50 to 125 mg/kg b.i.d. from time of immunization. The text has this:
Experimental autoimmune encephalomyelitis (EAE) is a T-cell-mediated autoimmune disease of the CNS which shares many clinical and histopathological features with human multiple sclerosis (MS). EAE is the most commonly used animal model of MS. […] Cytokines IL-23, IL-6 and IL-17, which are either critical for Th1 and Th17 differentiation or produced by these T cells, play a critical and non-redundant role in EAE development. Therefore, drugs targeting production of these cytokines are likely to have therapeutic potential in treatment of MS.
Compounds of Formula I or la were administered at 50 to 125 mg/kg b.i.d. from time of immunization to EAE mice to assess anti-inflammatory activity. In this model, EAE is induced by MOG35-55/CFA immunization and pertussis toxin injection in female C57BI/6 mice.

Experiment [2] addresses T1, Brd4 bromodomain 1 (BRD4(1)) (Homo sapiens, UniProt O60885).
T1 construct: made in house; host or cells: E. coli BL21(DE3)
Briefly: Inhibition of tetra-acetylated histone H4 binding to Brd4 bromodomain 1 (TR-FRET). Particulars: tetra-acetylated histone H4 peptide, first bromodomain of Brd4. The gist of the method:
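Serially diluted compound (0.2% DMSO) incubated 2 h at room temperature with 200 nM N-His BRD4 bromodomain 1 and 25-50 nM biotinylated tetra-acetyl H4 peptide, detected via Eu-streptavidin/XL665 anti-His. Loss of 665 nm relative to 620 nm signal gave IC50 from dose-response.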

The structures appear in SMILES notation.

For `Cc1noc(C)c1-c1cc(N)c2ncn(Cc3ccccc3)c2c1` [Example Compound 7, 1-Benzyl-6-(3,5-dimethylisoxazol-4-yl)-1H-benzo[d]imidazol-4-amine], the In vivo activity result (in the experiment on MV4-11 cells; in experiment [1]) was “Active” in each case. The IC50 in experiment [2] was at most 300 nM.

The values above are taken from patent publication US10363257B2 (ZENITH EPIGENETICS LTD., priority 2013, dated 2019).
